{
  "source": "patent US20230322781A1",
  "about": "(Northwestern University, priority 2020, published 2023)",
  "key": {"[1]": {"test": "1H NMR of equimolar mixture with CB[8]", "type": "binding", "details": "D2O, 298 K", "source_text": "The peaks in the spectrum were assigned on the basis of in-depth analyses of their 2D ^1H-^1H COSY and ROESY spectra. The chemical shifts of H-7, residing on the central phenylene groups, as well as H-5 and H-6, attached to the C═C double bonds, show (FIG. 2d) large upfield shifts (Δδ=−0.64, −0.43 and −1.12 for H-5, H-6, and H-7, respectively). While the protons on CB[8] display (FIG. 7) small upfield shifts (Δδ=−0.09, −0.11 and −0.13 for H-a, H-b, and H-c, respectively). […] Taken together, it can be concluded that, although OPVEBox^4+ and CBPQT^4+ have the same p-xylylene linkers, only OPVEBox^4+ can form ring-in-ring(s) complexes with CB[8] in aqueous solutions. […]\nAll solvents and reagents were obtained commercially and used without further purification unless noted otherwise. […] UV-Vis Absorption spectra were recorded in a conventional rectangular quartz cell (10×10×45 mm) on a UV-3600 Shimadzu spectrophotometer. Fluorescence spectra were measured in a rectangular quartz cell (10×10×45 mm) on a HORIBA FluoroMax-4 spectrometer, which was equipped with an integrating sphere for absolute fluorescence quantum yields determination and time-correlated single-photon counting (TCSPC) module for emission decays. […] Electrospray ionization-mass spectra (ESI-MS) were measured on Waters Synapt G2 mass spectrometer. […]"}, "[2]": {"test": "Isothermal titration calorimetry (ITC) with CB[8]", "type": "binding", "details": "1000 μM in syringe into CB[8] 50 μM; aqueous NaCl (1 mM), 298 K", "description": "All microcalorimetric titrations were performed in a thermostated TA Nano Isothermal Titration calorimeter at atmospheric pressure and 298 K. The samples were dissolved in an aqueous NaCl (1.0 mM) solution, in order to improve the solubility of CB[8], and the concentrations of sample were calibrated by UV-Vis absorption spectroscopy after filtered by a 0.45-filter. A solution of one reactant in a syringe was sequentially injected with stirring at 150 rpm into a solution of the other reactant in the sample cell with a constant volume of 185 μL. A representative titration curve is shown in FIG. 24, each titration of reactant into the sample cell gave an apparent reaction heat caused by the formation of the inclusion complex. The reaction heat decreases gradually until a balance was reached, whereupon only the dilution heat was measured. The net reaction heat was obtained by subtracting the dilution heat from the apparent reaction heat. The resulting data were analyzed with NanoAnalyze software using a 1:1 binding model to give the complex stability constant (Ka), standard molar reaction enthalpy (ΔH), and standard deviations. Generally, the first point of the titration curve was disregarded, as there is some liquid mixing near the tip of the injection needle before ITC run. […]\nThe value for K1 can be determined to be 5.8×10^7 M^−1 by analysis of the UV-Vis titration data. […]"}, "[3]": {"test": "Water solubility (qualitative statements)", "type": "physicochemical", "details": "H2O"}, "[4]": {"details": "literature value (ref 34); cited from earlier work"}},
  "note": "“Also recorded” adds a separate entry of the source. Counter-ions that a name gives are not always drawn.",
  "data": [
    {"smiles": "c1cc2ccc1C[n+]1ccc(cc1)-c1cc[n+](cc1)Cc1ccc(cc1)C[n+]1ccc(cc1)-c1cc[n+](cc1)C2", "note": "[CBPQT^4+, cyclobis(paraquat-p-phenylene)]", "values": [
      {"measurement": "binding with CB[8] by 1H NMR", "setting": "[1]", "result": "may bind very weakly to the p-xylylene linkers"},
      {"measurement": "enthalpy change upon addition into CB[8]", "setting": "[2]", "result": "no obvious enthalpy change"}
    ]},
    {"smiles": "O=C1N2CN3C(=O)N4CN5C(=O)N6CN7C(=O)N8CN9C(=O)N%10CN%11C(=O)N%12CN%13C(=O)N%14CN%15C(=O)N%16CN1C1C2N2CN%17C(=O)N(CN%18C(=O)N(CN%19C(=O)N(CN%20C(=O)N(CN%21C(=O)N(CN%22C(=O)N(CN%23C(=O)N(CN1C2=O)C%16C%15%23)C%14C%13%22)C%12C%11%21)C%10C9%20)C8C7%19)C6C5%18)C4C3%17", "note": "(stereo not shown) [CB[8], cucurbit[8]uril]", "values": [
      {"measurement": "water solubility", "setting": "[3]", "result": "poor water solubility; also recorded: low solubility"}
    ]},
    {"smiles": "CC12CC3CC(C)(C1)CC(N)(C3)C2", "note": "[memantine hydrochloride]", "values": [
      {"measurement": "binding affinity Ka for CB[8]", "setting": "[4]", "result": "8.3e+12", "unit": "M⁻¹"}
    ]}
  ]
}
